Data taken from US11179346B2, “Rupatadine-containing patch” (TEIKOKU SEIYAKU CO., LTD., priority 2017, dated 2021).

Columns and labels:
[1] = Degree of solubility of rupatadine base in acrylic adhesive (gravimetric method, presence or absence of crystal); type: physicochemical; settings: in acrylic adhesive (OH group), 100 μm plaster, crystal observed by microscope
Experimental: For comparison, the degree of solubility of the rupatadine base in an acrylic adhesive as an adhesive base was also investigated.
The degree of solubility of the rupatadine base in the acrylic adhesive was tested by a gravimetric method.
To 1 g (solid content) of the acrylic adhesive, the rupatadine base was added, and the mixture was stirred and degassed by ultrasonic wave.
The adhesive solution was applied so as to have a thickness of 100 μm, and dried. A plaster was observed by a microscope (manufactured by KEYENCE CORPORATION).
The degree of solubility was determined by the presence or absence of crystal.

[2] = Degree of solubility of rupatadine free base in each plaster ingredient (HPLC method); type: physicochemical
Text: Test Example 1: Investigation of Degree of Solubility of Rupatadine Free Base in Each Ingredient
The degree of solubility of a rupatadine free base (sometimes also referred to as “rupatadine base”) as an active ingredient in each plaster ingredient was investigated.
Levulinic acid as a solubilizer, oleyl oleate and isopropyl myristate (IPM) as a softener, and lauromacrogol (BL-4,2: polyoxyethylene lauryl ether) as a surfactant were selected. The degree of solubility of the rupatadine base in each ingredient was investigated.
To 5 mL of each of levulinic acid, oleyl oleate, isopropyl myristate (IPM), and lauromacrogol (BL-4,2), an excessive amount of the rupatadine base was added and stirred. The mixture was filtered through a 0.45-μm membrane filter, to remove an undissolved substance. To 200 μL of the filtrate, methanol was added using a measuring flask to adjust the volume to a desired volume. The mixture was measured by HPLC.
A rupatadine concentration was measured by an external calibration curve method, and the degree of solubility was calculated by specific gravity conversion.

In the case of `Cc1cncc(CN2CCC(=C3c4ccc(Cl)cc4CCc4cccnc43)CC2)c1` [rupatadine base, 8-chloro-11-[1-[(5-methyl-3-pyridinyl)methyl]-piperidin-4-ylidene]-6,11-dihydro-5H-benzo[5,6]cyclohepta[1,2-b]pyridine], the “Solubility (w/w %)” value [1] is reported as ≤15 to 16< w/w %, the “Solubility (w/w %)” value ([2]; in isopropyl myristate (softener)) is reported as 2 w/w % and the “Solubility (w/w %)” value ([2]; in lauromacrogol (BL-4,2) (surfactant)) is reported as 4 w/w %. For the same compound, the “Solubility (w/w %)” value ([2]; in levulinic acid (solubilizer)) was 29 w/w % and the “Solubility (w/w %)” value ([2]; in oleyl oleate (softener)) was 2 w/w %.
